# Paper PMC10604323, “Cannabidiol Modulates M-Type K^+ and Hyperpolarization-Activated Cation Currents” (Biomedicines, 2023)
# Assays:
# [1] = system: T1, M-type K+ current (IK(M)) of GH3 cells; KV7.2, KV7.3 and KV7.5 channels; experiment: whole-cell patch clamp; type: cell-based; conditions: high-K+ Ca2+-free solution with 1 μM TTX, 1 s step from -50 to -10 mV, pH 7.4, 20-25 °C, native current
# T1 construct: gene Kcnq2; native channels in GH3 cells; subunit composition not determined
# Description: whole-cell patch clamp on M-type K+ current (IK(M)) of GH3 cells; KV7.2, KV7.3 and KV7.5 channels | concentration–response curve for the CBD-induced inhibition of the density of IK(M)
# [2] = system: T2, hyperpolarization-activated cation current (Ih) of GH3 cells; HCN2, HCN3, and a combination of HCN2 and HCN3; experiment: whole-cell patch clamp; type: cell-based; conditions: Ca2+-free Tyrode's solution with 0.5 mM CdCl2 and 1 μM TTX, 2 s step from -40 to -110 mV, pH 7.4, 20-25 °C, native current
# T2 construct: native channels in GH3 cells; subunit composition not determined
structure (smiles),measurement,setting,value
"C=C(C)[C@@H]1CCC(C)=C[C@H]1c1c(O)cc(CCCCC)cc1O [Cannabidiol, 2-[(1R,6R)-3-methyl-6-(prop-1-en-2-yl)cyclohex-2-en-1-yl]-5-pentylbenzene-1,3-diol]",IC50,[1],3.6 µM
same,IC50,[2],3.3 µM
